Source: US6608082B1, “Treatment of erectile dysfunction using isoquinoline compound melanocortin receptor ligands” (Lion Bioscience AG, priority 1998, dated 2003)
Like-named read-outs stand apart in the source and are kept apart here. Values belong to the compound of their own block, whether it stands above or below them.

Molecular target: T1, MCR-1 (Homo sapiens, UniProt Q01726)
T1 construct: expressed in transfected cells; host or cells: HEK 293
Test: Melanocortin receptor binding assay, competition with 125I-HP 467, HEK 293 cells expressing hMCR-1
Details: for % Disp. MC-1 10 μM: displacement of 125I-HP 467 at 10 μM isoquinoline compound; for % Disp. of 125I-HP 467 (first of duplicate) / % Disp. of 125I-HP 467 (second of duplicate): 10 μM isoquinoline compound; for % Disp. of 125I-HP 467 (first of duplicate): HEK 293 cells expressing MCR-1, duplicate 1; for % Disp. of 125I-HP 467 (second of duplicate): HEK 293 cells expressing MCR-1, duplicate 2; for IC50: read-out: MC-1 IC50
Procedure: All cell culture media and reagents were obtained from GibcoBRL (Gaithersburg Md.), except for COSMIC CALF SERUM (HyClone; Logan Utah).
Cells were suspended in PBS, 10% COSMIC CALF SERUM and 1 mM CaCl2. Cell suspensions were prepared at a density of 2×10^4 cells/ml for HEK 293 cells expressing hMCR-3, hMCR-4 or hMCR-5, and 1×10^5 cells/ml for HEK 293 cells expressing hMCR-1. Suspensions were placed in a water bath and allowed to warm to 37° C. for 1 hr.
Binding assays were performed in a total volume of 250 μl for HEK 293 cells. […] To each tube was added 4×10^3 HEK 293 cells expressing hMCR-3, hMCR-4 or hMCR-5, or 2×10^4 cells expressing hMCR-1. Assays were incubated for 2.5 hr at 37° C.
GF/B filter plates were prepared by soaking for at least one hour in 5 mg/ml BSA and 10 mM CaCl2. Assays were filtered using a Brandel 96-well cell harvester (Brandel Inc.; Gaithersburg, Md.). The filters were washed four times with cold 50 mM Tris, pH 7.4, the filter plates were dehydrated for 2 hr and 35 μl of MICROSCINT was added to each well. Filter plates were counted using a Packard Topcount (Packard Instrument Co.) and data analyzed using GraphPad PRISM v2.0 (GraphPad Software Inc.; San Diego Calif.) and Microsoft EXCEL v5.0a (Microsoft Corp.; Redmond Wash.).
To assay isoquinoline compounds, binding assays were performed in duplicate in a 96 well format. […] A 0.2 ml aliquot of suspended cells was added to each well to give the cell numbers indicate above, and the cells were incubated at 37° C. for 2.5 hr. Cells were harvested on GF/B filter plates as described above and counted.

[1] = competition with 125I-HP 467, HEK 293 cells expressing MCR-1
[2] = inhibition of binding of 125I-HP 467, HEK 293 cells expressing MCR-1

T1 sequence (Q01726 whole entry): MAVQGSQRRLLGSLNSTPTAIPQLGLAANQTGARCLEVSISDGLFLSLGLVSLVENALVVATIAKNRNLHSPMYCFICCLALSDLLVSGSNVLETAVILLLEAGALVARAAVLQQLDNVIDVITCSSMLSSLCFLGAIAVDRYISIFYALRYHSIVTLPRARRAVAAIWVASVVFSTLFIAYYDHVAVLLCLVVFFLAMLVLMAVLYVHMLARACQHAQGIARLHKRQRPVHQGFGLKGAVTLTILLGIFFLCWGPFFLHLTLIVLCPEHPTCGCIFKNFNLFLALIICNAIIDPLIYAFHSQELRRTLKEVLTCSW

IC50 [1]: 350 nM
Compound: NCCNC(CN)CCCN1Cc2ccccc2C(CNCCc2ccccc2)C1c1ccc(-c2ccccc2)cc1 (stereo not drawn) [TRG 2411-118]

IC50 [2]: 100 nM
Compound: CCNc1ccc(C2C(CN)c3ccccc3CN2CCCC(CN)NCCc2ccc3ccccc3c2)cc1 (mixture of isomers) [TRG 2411-185]

IC50 [1]: 220 nM
Compound: CCNc1ccc(C2C(CNCCc3ccccc3)c3ccccc3CN2CCCCC(CN)NCCC2CCCCC2)cc1 (stereo not drawn) [TRG 2411-47]

IC50 [1]: 970 nM
Compound: CNCCNC(CN)CCCN1Cc2ccccc2C(CNCCc2ccccc2)C1c1ccc(-c2ccccc2)cc1 (stereo not drawn) [TRG 2411-117]

IC50 [2]: 220 nM
Compound: CCNc1ccc(C2C(CNC3CCCCC3)c3ccccc3CN2CCCC(CN)NCCc2ccc3ccccc3c2)cc1 (stereo not drawn) [TRG 2411-172]

IC50 [1]: 230 nM
Compound: NCC(CCCN1Cc2ccccc2C(CNC2CCCCC2)C1c1ccc(-c2ccccc2)cc1)N1CCCC1 (stereo not drawn) [TRG 2411-131]

IC50 [1]: 1220 nM
Compound: CNC(CNC(CN)CCCN1Cc2ccccc2C(CN)C1c1ccc(-c2ccccc2)cc1)Cc1ccccc1 (stereo not drawn) [TRG 2411-144]

IC50 [2]: 490 nM
Compound: CCOc1ccc(C2C(CNCCc3ccccc3)c3ccccc3CN2CCCCC(CN)NCCc2ccccc2)cc1 (stereo not drawn) [TRG 2412-5]

IC50 [2]: 480 nM
Compound: CCNc1ccc(C2C(CN)c3ccccc3CN2CCCC(N)CN)cc1 (mixture of isomers) [TRG 2411-174]

IC50 [1]: 550 nM
Compound: COCCNC(CN)CCCCN1Cc2ccccc2C(CN)C1c1ccc(-c2ccccc2)cc1 (stereo not drawn) [TRG 2411-32]

Second part, the compound before the results:

Compound: CNC(CN)CN1Cc2ccccc2C(CNC2CCCCC2)C1c1ccc(OC)c2ccccc12 (stereo not drawn) [TRG 2405-158]
% Disp. MC-1 10 μM (first of duplicate): 45.6%
% Disp. MC-1 10 μM (second of duplicate): 45.8%

Compound: CNC(CN)CCCCN1Cc2ccccc2C(CNC2CCCCC2)C1c1ccc([N+](=O)[O-])c(O)c1 (mixture of isomers) [TRG 2405-250]
% Disp. of 125I-HP 467 (first of duplicate): 34.7%
% Disp. of 125I-HP 467 (second of duplicate): 50.5%

Compound: NCCN1Cc2ccccc2C(CNC2CCCCC2)C1c1ccc(Oc2ccccc2)cc1 (stereo not drawn) [TRG 2405-72]
% Disp. MC-1 10 μM (first of duplicate): 50.1%
% Disp. MC-1 10 μM (second of duplicate): 57.7%

Compound: CN[C@H](CN)CCCCN1Cc2ccccc2C(CNC2CCCCC2)C1c1cccc2ccccc12 (stereo partly drawn) [TRG 2405-185]
% Disp. of 125I-HP 467 (first of duplicate): 68.1%
% Disp. of 125I-HP 467 (second of duplicate): 60.4%

Compound: CNC(CN)CCCCN1Cc2ccccc2C(CNC2CCCCC2)C1c1cc2c3c(c1O)CCCN3CCC2 (stereo not drawn) [TRG 2405-264]
% Disp. of 125I-HP 467 (first of duplicate): 35%
% Disp. of 125I-HP 467 (second of duplicate): 39.4%

Compound: NCC(CCCCN1Cc2ccccc2C(CNCCc2ccccc2)C1c1ccc(-c2ccccc2)cc1)NCc1ccccc1 (stereo not drawn) [TRG 2411-13]
IC50 [1]: 1360 nM

Compound: CNC(CN)CN1Cc2ccccc2C(CNC2CCCCC2)C1c1cnc2ccccc2c1 (stereo not drawn) [TRG 2405-142]
% Disp. MC-1 10 μM (first of duplicate): 48.5%
% Disp. MC-1 10 μM (second of duplicate): 45.1%

Compound: CNC(CN)CN1Cc2ccccc2C(CNC2CCCCC2)C1c1ccc([N+](=O)[O-])cc1 (mixture of isomers) [TRG 2405-161]
% Disp. MC-1 10 μM (first of duplicate): 58.4%
% Disp. MC-1 10 μM (second of duplicate): 59.1%

Compound: NCCN1Cc2ccccc2C(CNC2CCCCC2)C1c1cccc(O)c1 (stereo not drawn) [TRG 2405-43]
% Disp. MC-1 10 μM (first of duplicate): 32.3%
% Disp. MC-1 10 μM (second of duplicate): 23.1%

Compound: CNC(CN)CCCCN1Cc2ccccc2C(CNC2CCCCC2)C1c1ccsc1 (mixture of isomers) [TRG 2405-233]
% Disp. of 125I-HP 467 (first of duplicate): 53.6%
% Disp. of 125I-HP 467 (second of duplicate): 42.8%

Compound: CNC(CN)CN1Cc2ccccc2C(CNC2CCCCC2)C1c1cccc(Oc2ccccc2)c1 (stereo not drawn) [TRG 2405-140]
% Disp. MC-1 10 μM (first of duplicate): 67.6%
% Disp. MC-1 10 μM (second of duplicate): 67.8%

Compound: NCCN1Cc2ccccc2C(CNC2CCCCC2)C1c1ccncc1 (stereo not drawn) [TRG 2405-74]
% Disp. MC-1 10 μM (first of duplicate): 35.3%
% Disp. MC-1 10 μM (second of duplicate): 0%

Compound: CNC(CN)CN1Cc2ccccc2C(CNC2CCCCC2)C1c1ccc(OC)c(C)c1 (mixture of isomers) [TRG 2405-136]
% Disp. MC-1 10 μM (first of duplicate): 49%
% Disp. MC-1 10 μM (second of duplicate): 51.8%

Compound: NCC(CCCCN1Cc2ccccc2C(CNCCc2ccccc2)C1c1ccc(-c2ccccc2)cc1)NCC1CCCCC1 (stereo not drawn) [TRG 2411-12]
IC50 [1]: 730 nM

Compound: COc1ccc(C2C(CNC3CCCCC3)c3ccccc3CN2CCN)c2ccccc12 (stereo not drawn) [TRG 2405-68]
% Disp. MC-1 10 μM (first of duplicate): 55.3%
% Disp. MC-1 10 μM (second of duplicate): 52.3%

Compound: CNC(CN)CCCCN1Cc2ccccc2C(CNC2CCCCC2)C1c1cccc([N+](=O)[O-])c1 (stereo not drawn) [TRG 2405-229]
% Disp. of 125I-HP 467 (first of duplicate): 58.6%
% Disp. of 125I-HP 467 (second of duplicate): 48.8%

Compound: CNC(CN)CCCCN1Cc2ccccc2C(CNC2CCCCC2)C1c1ccco1 (stereo not drawn) [TRG 2405-197]
% Disp. of 125I-HP 467 (first of duplicate): 41.9%
% Disp. of 125I-HP 467 (second of duplicate): 41.3%
